Results as given in publication PMC5011342, “A high throughput drug screening assay to identify compounds that promote oligodendrocyte differentiation using acutely dissociated and purified oligodendrocyte precursor cells” (BMC Research Notes, 2016).
Like-named read-outs stand apart in the source and are kept apart here.

How the values were obtained:
[1] = tested on: acutely dissociated and purified rat OPCs; assay: Acute OL differentiation assay (MBP expression/cell, immunofluorescent image quantification); type: cell-based; conditions: for activation at 0.08 µM: test compound at 0.08 uM, read-out: 0.08 uM (% Quet)
Summary of the method: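 Oligodendrocyte precursor cells were enriched from P6-P7 Sprague–Dawley rat brains by immunopanning (RAN-2 and GalC depletion, O4 selection), plated at 5000 cells/well in serum-free, mitogen-free differentiation media on PDL/laminin 96-well view plates, centrifuged at 200×g, and pre-incubated 1–2 h before test compounds were added in quadruplicate. On DIV4, cells were fixed, stained for MBP and DAPI, imaged automatically, and MBP expression per cell was quantified.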

expanded OPCs = assay: cells; conditions: for viability at 0.1 µM / viability at 1 µM / viability at 10 µM: Rattus norvegicus, 72 h
Summary of the method: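 Expanded OPCs seeded at 10,000 cells/well in differentiation media, then exposed to NCC library compounds at 10, 1 and 0.1 µM (quadruplicate, 0.1% DMSO) for three days. Viability read as alamarBlue fluorescence (560/590 nm) after 4 h at 37 °C; tunicamycin 5 ng/ml served as toxicity control.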

[2] = Rattus norvegicus, test compound at 2 uM, MBP expression relative to quetiapine, NCC library screen, sheet "All OLga data", read-out: 2 uM (% Quet)
[3] = Rattus norvegicus, test compound at 10 uM, MBP expression relative to quetiapine, NCC library screen, sheet "All OLga data", read-out: 10 uM (% Quet)
[4] = alamarBlue viability of expanded OPCs, compound at 0.1 µM, relative to DMSO control
[5] = alamarBlue viability of expanded OPCs, compound at 1 µM, relative to DMSO control
[6] = alamarBlue viability of expanded OPCs, compound at 10 µM, relative to DMSO control
[7] = Rattus norvegicus, test compound at 2 uM, NCC library screen, sheet "All OLga data", relative to quetiapine, read-out: 2 uM (% Quet)
[8] = Rattus norvegicus, test compound at 10 uM, NCC library screen, sheet "All OLga data", relative to quetiapine, read-out: 10 uM (% Quet)
[9] = read-out: 0.1 µM (% DMSO), alamarBlue viability, NCC library compound at 0.1 µM, sheet "All Tox data"
[10] = read-out: 1 µM (% DMSO), alamarBlue viability, NCC library compound at 1 µM, sheet "All Tox data"
[11] = read-out: 10 µM (% DMSO), alamarBlue viability, NCC library compound at 10 µM, sheet "All Tox data"
[12] = Rattus norvegicus, 2 uM test compound, relative to quetiapine, sheet "All OLga data", read-out: OL differentiation, 2 uM (% Quet)
[13] = Rattus norvegicus, 10 uM test compound, relative to quetiapine, sheet "All OLga data", read-out: OL differentiation, 10 uM (% Quet)
[14] = read-out: 0.1 µM (% DMSO), alamarBlue viability of expanded OPCs, compound at 0.1 µM, sheet All Tox data
[15] = read-out: 1 µM (% DMSO), alamarBlue viability of expanded OPCs, compound at 1 µM, sheet All Tox data
[16] = read-out: 10 µM (% DMSO), alamarBlue viability of expanded OPCs, compound at 10 µM, sheet All Tox data
[17] = Rattus norvegicus, NCC library screen, sheet "All OLga data", relative to quetiapine
[18] = Rattus norvegicus, test compound at 0.4 uM, NCC library screen, sheet "All OLga data", relative to quetiapine, read-out: 0.4 uM (% Quet)

Structure (SMILES)	0.1 µM (% DMSO) (expanded OPCs; [4])	1 µM (% DMSO) (expanded OPCs; [5])	10 µM (% DMSO) (expanded OPCs; [6])	activation at 2 µM [1, 7] [%]	activation at 10 µM [1, 8] [%]	viability at 0.1 µM (expanded OPCs; [9]) [%]	viability at 1 µM (expanded OPCs; [10]) [%]	viability at 10 µM (expanded OPCs; [11]) [%]	other results
CC(=O)OCC(=O)[C@@]1(O)CC[C@H]2[C@@H]3CCC4=CC(=O)CC[C@]4(C)[C@H]3C(=O)C[C@@]21C [Cortisone acetate]	89.9	98.1	86.2						activation at 2 µM [1, 2]: 8.6%; activation at 10 µM [1, 3]: 4.1%
C[C@]12CCC(=O)C=C1CC[C@@H]1[C@@H]2CC[C@@]2(C)[C@H]1CC[C@]2(O)C(=O)CO [Cortodoxone]				2.2	5.5	92.3	99.6	96.1	
CN1C(=O)CC[C@H]1c1cccnc1 [Cotinine]									activation at 2 µM [1, 12]: -8.8%; activation at 10 µM [1, 13]: 21.8%; viability at 0.1 µM (expanded OPCs; [14]): 88.9%; viability at 1 µM (expanded OPCs; [15]): 92%; viability at 10 µM (expanded OPCs; [16]): 98.7%
O=C(O)c1cc(=O)c2c(OCC(O)COc3cccc4oc(C(=O)O)cc(=O)c34)cccc2o1 [Cromolyn Sodium]	93.1	94.0	85.3						activation at 2 µM [1, 2]: -3%; activation at 10 µM [1, 3]: 3.7%
O=P1(N(CCCl)CCCl)NCCCO1 (centres unmarked) [Cyclophosphamide]									activation at 2 µM ([1]; Rattus norvegicus, read-out: 2 uM (% Quet)): 16.5%; activation at 10 µM ([1]; Rattus norvegicus, read-out: 10 uM (% Quet)): 5.1%; 0.1 µM (% DMSO) (expanded OPCs; rat): 90.6 % DMSO; 1 µM (% DMSO) (expanded OPCs; rat): 100.6 % DMSO; 10 µM (% DMSO) (expanded OPCs; rat): 97.0 % DMSO
N[C@@H]1CON=C1O [Cycloserine]	89.7	97.0	89.5						activation at 2 µM [1, 12]: 4.1%; activation at 10 µM [1, 13]: 13.9%; activation at 2 µM [1, 2]: -13.8%; activation at 10 µM [1, 3]: -23%; viability at 0.1 µM (expanded OPCs; [14]): 82.2%; viability at 1 µM (expanded OPCs; [15]): 87%; viability at 10 µM (expanded OPCs; [16]): 97.4%
CN1CCC(=C2c3ccccc3C=Cc3ccccc32)CC1 [Cyproheptadine]						71.2	49.3	25.2	activation at 0.08 µM [1, 17]: -0.6%; activation at 0.4 µM [1, 18]: 10.3%
Nc1ccn([C@@H]2O[C@H](CO)[C@@H](O)[C@@H]2O)c(=O)n1 [Cytarabine]									activation at 0.4 µM ([1]; Rattus norvegicus, 0.4 uM test compound, relative to quetiapine, sheet "All OLga data", read-out: OL differentiation, 0.4 uM (% Quet)): -18.7%; activation at 2 µM [1, 12]: 5.8%; viability at 0.1 µM (expanded OPCs; [14]): 60.2%; viability at 1 µM (expanded OPCs; [15]): 56.2%; viability at 10 µM (expanded OPCs; [16]): 43.1%
C[N+]1(C)CCN(c2ccccc2)CC1 [DMPP, dimethylphenylpiperazinium, reference compound]						101	89.5	111	activation at 2 µM [1, 12]: 40.6%; activation at 10 µM [1, 13]: 54.3%; EC50 ([1]; Rattus norvegicus, average EC50 for induction of OL differentiation from independent biological replicates, eight concentrations): 13 µM; hit in OL differentiation assay, MRF-TMC ([1]; ● = confirmed hit in this paper's assay): ●
C#C[C@]1(O)CC[C@H]2[C@@H]3CCC4=Cc5oncc5C[C@]4(C)[C@H]3CC[C@@]21C [Danazol]	95.3	92.4	47.1	24.1					activation at 0.4 µM [1, 18]: 9.4%
O.O.O=C1N=C([O-])CN1/N=C/c1ccc(-c2ccc([N+](=O)[O-])cc2)o1.[Na+] [Dantrolene sodium salt dihydrate]	93.5	100.3	91.7						2 uM (% Quet) ([1]; test compound at 2 uM, MBP expression relative to quetiapine, NCC library screen, sheet "All OLga data"): -16.0 % Quet; 10 uM (% Quet) ([1]; test compound at 10 uM, MBP expression relative to quetiapine, NCC library screen, sheet "All OLga data"): -55.0 % Quet
Nc1ccc(S(=O)(=O)c2ccc(N)cc2)cc1 [Dapsone]	101.9	96.3	99.0	-13.2	-22.2				
Cc1c(O)c(=O)ccn1C [Deferiprone]									activation at 2 µM [1, 12]: 6.6%; activation at 10 µM [1, 13]: 37.1%; viability at 0.1 µM (expanded OPCs; [14]): 91.3%; viability at 1 µM (expanded OPCs; [15]): 90.1%; viability at 10 µM (expanded OPCs; [16]): 84.8%
C[C@H](CCC(=O)O)[C@H]1CC[C@H]2[C@@H]3C(=O)C[C@@H]4CC(=O)CC[C@]4(C)[C@H]3CC(=O)[C@]12C [Dehydrocholic Acid]				-12.3	-5.3	101	106	109	
C[C@]12CC[C@H](O)CC1=CC[C@@H]1[C@@H]2CC[C@]2(C)C(=O)CC[C@@H]12 [Dehydroepiandrosterone]				-23.8	-57.9	92	87.5	83.1	
CN(C)[C@@H]1C(O)=C(C(N)=O)C(=O)[C@@]2(O)C(O)=C3C(=O)c4c(O)ccc(Cl)c4[C@@H](O)[C@H]3C[C@@H]12 [Demeclocycline]				-7.5	-21	96.3	90.6	88.4	
CNCCCN1c2ccccc2CCc2ccccc21 [Desipramine]	75.5	43.8	16.4						activation at 0.08 µM ([1]; Rattus norvegicus, MBP expression relative to quetiapine, NCC library screen, sheet "All OLga data"): 8.9%; activation at 0.4 µM ([1]; Rattus norvegicus, test compound at 0.4 uM, MBP expression relative to quetiapine, NCC library screen, sheet "All OLga data", read-out: 0.4 uM (% Quet)): -5.3%
Clc1ccc2c(c1)CCc1cccnc1C2=C1CCNCC1 [Desloratadine]						61	29	10.5	activation at 0.08 µM [1, 17]: -28%; activation at 0.4 µM [1, 18]: -84.8%
C[C@@H]1C[C@H]2[C@@H]3CCC4=CC(=O)C=C[C@]4(C)[C@@]3(F)[C@@H](O)C[C@]2(C)[C@H]1C(=O)CO [Desoximetasone]				-17.9	-33	111	114	111	
C[C@@H]1C[C@H]2[C@@H]3CCC4=CC(=O)C=C[C@]4(C)[C@@]3(F)[C@@H](O)C[C@]2(C)[C@@]1(O)C(=O)CO [Dexamethasone]	108.6	109.4	109.8						activation at 2 µM [1, 2]: 1.1%; activation at 10 µM [1, 3]: -24.5%
